The kinase profiling compilation of Christmann-Franck et al. (2016)

Experiments:
Test in all cases: KINOMEscan competition binding
[1] = target: ADCK4 (human) (UniProt Q96D53)
[2] = target: AURKB (human) (UniProt Q96GD4)
[3] = target: AXL (human) (UniProt P30530)
[4] = target: BMPR1A (human) (UniProt P36894)
[5] = target: CDK16 (human) (UniProt Q00536)
[6] = target: CDK18 (human) (UniProt Q07002)
[7] = target: CDK4 CCND3 (human) (UniProt P11802+P30281)
[8] = target: CDK8 (human) (UniProt P49336)
[9] = target: CSK (human) (UniProt P41240)
Sequence of CSK (human) (P41240 whole entry, looked up): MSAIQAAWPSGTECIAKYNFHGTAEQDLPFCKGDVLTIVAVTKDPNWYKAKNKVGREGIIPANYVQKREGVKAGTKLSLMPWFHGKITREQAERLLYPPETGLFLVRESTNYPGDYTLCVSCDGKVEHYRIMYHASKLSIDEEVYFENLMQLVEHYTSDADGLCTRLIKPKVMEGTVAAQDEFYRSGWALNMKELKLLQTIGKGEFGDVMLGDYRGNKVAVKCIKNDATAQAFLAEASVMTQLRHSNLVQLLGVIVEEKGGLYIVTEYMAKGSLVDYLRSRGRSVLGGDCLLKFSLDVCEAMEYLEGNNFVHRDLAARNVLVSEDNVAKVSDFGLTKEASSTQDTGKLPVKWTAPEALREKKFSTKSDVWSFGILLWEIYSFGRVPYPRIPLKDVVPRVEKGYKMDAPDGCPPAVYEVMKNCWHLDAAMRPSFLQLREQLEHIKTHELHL

[10] = system: EGFR (human), P00533 [752-759 del]
[11] = target: EPHA1 (human) (UniProt P21709)
[12] = target: FGFR3 (human) (UniProt P22607)
[13] = system: FGFR3 (human), P22607 [G697C]
[14] = target: HIPK1 (human) (UniProt Q86Z02)
[15] = target: JAK3 JH1 catalytic (human) (UniProt P52333)
[16] = system: KIT (human), P10721 [D816H]
Sequence of KIT (human), P10721 [D816H] (P10721 whole entry D816H, looked up): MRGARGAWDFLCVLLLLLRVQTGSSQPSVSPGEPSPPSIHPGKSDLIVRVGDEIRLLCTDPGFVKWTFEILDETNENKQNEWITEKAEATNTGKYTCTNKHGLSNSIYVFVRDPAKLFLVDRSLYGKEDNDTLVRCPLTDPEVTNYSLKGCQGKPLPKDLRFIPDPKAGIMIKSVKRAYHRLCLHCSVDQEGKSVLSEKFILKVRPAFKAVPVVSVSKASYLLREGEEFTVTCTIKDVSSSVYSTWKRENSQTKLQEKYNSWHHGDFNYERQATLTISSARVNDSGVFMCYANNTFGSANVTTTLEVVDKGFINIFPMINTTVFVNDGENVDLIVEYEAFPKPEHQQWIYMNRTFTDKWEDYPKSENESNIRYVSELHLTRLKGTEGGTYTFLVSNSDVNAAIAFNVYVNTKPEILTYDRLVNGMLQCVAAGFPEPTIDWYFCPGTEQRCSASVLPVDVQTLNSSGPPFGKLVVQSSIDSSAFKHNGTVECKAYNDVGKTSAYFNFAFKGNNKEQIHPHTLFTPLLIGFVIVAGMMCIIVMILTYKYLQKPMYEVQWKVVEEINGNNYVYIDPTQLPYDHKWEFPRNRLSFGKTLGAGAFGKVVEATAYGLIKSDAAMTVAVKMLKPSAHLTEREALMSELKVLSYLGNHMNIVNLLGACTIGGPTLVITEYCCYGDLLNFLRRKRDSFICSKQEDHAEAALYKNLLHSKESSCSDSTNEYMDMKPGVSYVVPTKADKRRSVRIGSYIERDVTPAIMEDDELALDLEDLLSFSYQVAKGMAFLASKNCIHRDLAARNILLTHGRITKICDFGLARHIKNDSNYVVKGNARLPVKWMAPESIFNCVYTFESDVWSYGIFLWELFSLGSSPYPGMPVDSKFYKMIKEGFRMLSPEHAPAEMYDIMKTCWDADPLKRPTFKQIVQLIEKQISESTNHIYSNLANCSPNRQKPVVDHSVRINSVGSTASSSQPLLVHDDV

[17] = target: MAP2K4 (human) (UniProt P45985)
[18] = target: MAP3K11 (human) (UniProt Q16584)
[19] = target: MAP3K12 (human) (UniProt Q12852)
[20] = target: MAP3K15 (human) (UniProt Q6ZN16)
[21] = target: MAP3K4 (human) (UniProt Q9Y6R4)
[22] = target: MAPK8 (human) (UniProt P45983)
Sequence of MAPK8 (human) (P45983 whole entry, looked up): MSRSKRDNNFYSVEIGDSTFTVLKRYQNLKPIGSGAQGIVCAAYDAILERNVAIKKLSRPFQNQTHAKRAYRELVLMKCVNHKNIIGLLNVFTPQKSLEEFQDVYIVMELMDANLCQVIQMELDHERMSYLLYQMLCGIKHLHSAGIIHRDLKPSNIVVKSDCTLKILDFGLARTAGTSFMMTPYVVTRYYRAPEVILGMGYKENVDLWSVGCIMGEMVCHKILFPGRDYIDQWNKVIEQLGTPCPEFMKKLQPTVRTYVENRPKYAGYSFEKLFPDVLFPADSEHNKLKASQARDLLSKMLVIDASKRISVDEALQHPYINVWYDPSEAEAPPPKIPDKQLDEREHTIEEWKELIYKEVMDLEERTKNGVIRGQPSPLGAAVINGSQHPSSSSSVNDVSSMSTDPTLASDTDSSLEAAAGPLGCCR

[23] = target: MAPKAPK5 (human) (UniProt Q8IW41)
[24] = target: MAST1 (human) (UniProt Q9Y2H9)
[25] = system: MET (human), P08581 [Y1235D]
[26] = target: NEK4 (human) (UniProt P51957)
[27] = target: PI4KB (human) (UniProt Q9UBF8)
[28] = system: PIK3CA (human), P42336 [E542K]
[29] = system: PIK3CA (human), P42336 [H1047Y]
[30] = target: PKN2 (human) (UniProt Q16513)
Sequence of PKN2 (human) (Q16513 whole entry, looked up): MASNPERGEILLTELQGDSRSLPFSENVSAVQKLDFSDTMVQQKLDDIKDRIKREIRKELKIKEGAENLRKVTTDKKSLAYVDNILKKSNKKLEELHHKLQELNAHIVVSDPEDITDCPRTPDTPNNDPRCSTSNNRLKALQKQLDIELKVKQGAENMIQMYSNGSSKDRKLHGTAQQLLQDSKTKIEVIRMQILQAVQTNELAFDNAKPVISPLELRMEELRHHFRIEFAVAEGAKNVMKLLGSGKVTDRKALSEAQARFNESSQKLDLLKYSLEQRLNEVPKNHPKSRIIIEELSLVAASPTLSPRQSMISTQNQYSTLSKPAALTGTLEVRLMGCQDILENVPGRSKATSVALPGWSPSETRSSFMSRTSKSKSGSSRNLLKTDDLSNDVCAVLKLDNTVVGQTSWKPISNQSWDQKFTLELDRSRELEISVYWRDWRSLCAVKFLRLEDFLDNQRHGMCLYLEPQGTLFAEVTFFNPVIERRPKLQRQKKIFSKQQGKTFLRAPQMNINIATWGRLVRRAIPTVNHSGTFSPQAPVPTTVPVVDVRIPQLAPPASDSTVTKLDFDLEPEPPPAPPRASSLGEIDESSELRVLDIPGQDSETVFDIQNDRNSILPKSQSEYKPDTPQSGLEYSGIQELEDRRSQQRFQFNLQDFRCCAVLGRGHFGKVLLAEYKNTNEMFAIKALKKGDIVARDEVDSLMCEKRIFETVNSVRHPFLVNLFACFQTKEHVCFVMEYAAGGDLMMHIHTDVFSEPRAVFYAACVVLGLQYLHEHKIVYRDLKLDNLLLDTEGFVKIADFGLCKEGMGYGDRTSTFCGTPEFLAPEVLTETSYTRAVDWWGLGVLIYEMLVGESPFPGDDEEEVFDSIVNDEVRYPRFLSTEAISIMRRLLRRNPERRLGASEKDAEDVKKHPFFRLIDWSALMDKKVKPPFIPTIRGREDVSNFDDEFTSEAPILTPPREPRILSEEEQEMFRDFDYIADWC

[31] = target: PKN3 (M.tuberculosis) (UniProt Q6P5Z2)
[32] = target: PLK3 (human) (UniProt Q9H4B4)
[33] = target: PRKCI (human) (UniProt P41743)
[34] = target: PTK2 (human) (UniProt Q05397)
Sequence of PTK2 (human) (Q05397 whole entry, looked up): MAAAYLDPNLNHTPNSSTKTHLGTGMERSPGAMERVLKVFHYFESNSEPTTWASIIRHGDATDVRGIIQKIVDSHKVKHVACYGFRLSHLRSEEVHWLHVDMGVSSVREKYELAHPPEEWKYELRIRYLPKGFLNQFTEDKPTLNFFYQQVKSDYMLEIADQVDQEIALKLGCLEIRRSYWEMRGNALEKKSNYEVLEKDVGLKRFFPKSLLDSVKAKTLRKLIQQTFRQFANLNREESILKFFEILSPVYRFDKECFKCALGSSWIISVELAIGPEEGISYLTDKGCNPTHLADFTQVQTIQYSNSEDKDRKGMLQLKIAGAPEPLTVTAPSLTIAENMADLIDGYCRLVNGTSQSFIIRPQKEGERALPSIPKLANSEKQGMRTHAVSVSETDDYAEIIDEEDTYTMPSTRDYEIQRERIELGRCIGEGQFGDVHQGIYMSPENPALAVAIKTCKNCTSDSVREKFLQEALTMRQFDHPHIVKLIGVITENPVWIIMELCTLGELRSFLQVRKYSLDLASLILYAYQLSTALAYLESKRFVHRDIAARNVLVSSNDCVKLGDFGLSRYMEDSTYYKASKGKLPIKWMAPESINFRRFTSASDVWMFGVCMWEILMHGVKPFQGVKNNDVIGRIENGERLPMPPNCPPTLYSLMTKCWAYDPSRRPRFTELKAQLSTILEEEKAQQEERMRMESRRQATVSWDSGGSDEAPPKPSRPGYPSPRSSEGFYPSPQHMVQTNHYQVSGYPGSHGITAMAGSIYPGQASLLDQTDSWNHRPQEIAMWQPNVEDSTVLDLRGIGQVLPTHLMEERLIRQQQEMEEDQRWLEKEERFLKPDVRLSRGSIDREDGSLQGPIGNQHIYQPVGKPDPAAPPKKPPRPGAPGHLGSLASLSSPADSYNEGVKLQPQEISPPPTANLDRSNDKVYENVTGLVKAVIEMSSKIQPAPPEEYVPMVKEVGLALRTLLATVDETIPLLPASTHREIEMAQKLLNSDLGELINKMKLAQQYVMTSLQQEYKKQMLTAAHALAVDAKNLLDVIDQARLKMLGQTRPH

[35] = target: PTK6 (human) (UniProt Q13882)
[36] = target: SRPK1 (human) (UniProt Q96SB4)
[37] = target: STK25 (human) (UniProt O00506)
Sequence of STK25 (human) (O00506 whole entry, looked up): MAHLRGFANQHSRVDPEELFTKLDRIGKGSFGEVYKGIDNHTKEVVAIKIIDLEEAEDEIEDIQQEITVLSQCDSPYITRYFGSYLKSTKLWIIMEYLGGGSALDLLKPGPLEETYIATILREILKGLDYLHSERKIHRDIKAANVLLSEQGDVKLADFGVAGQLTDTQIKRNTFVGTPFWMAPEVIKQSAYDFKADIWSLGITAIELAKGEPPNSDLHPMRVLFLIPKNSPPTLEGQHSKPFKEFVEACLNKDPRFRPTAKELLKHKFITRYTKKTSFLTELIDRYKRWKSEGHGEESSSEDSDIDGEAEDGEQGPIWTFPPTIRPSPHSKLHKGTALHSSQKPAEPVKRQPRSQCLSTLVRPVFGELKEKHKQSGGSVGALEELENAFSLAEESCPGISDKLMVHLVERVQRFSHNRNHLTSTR

[38] = target: STK32A (human) (UniProt Q8WU08)
Sequence of STK32A (human) (Q8WU08 whole entry, looked up): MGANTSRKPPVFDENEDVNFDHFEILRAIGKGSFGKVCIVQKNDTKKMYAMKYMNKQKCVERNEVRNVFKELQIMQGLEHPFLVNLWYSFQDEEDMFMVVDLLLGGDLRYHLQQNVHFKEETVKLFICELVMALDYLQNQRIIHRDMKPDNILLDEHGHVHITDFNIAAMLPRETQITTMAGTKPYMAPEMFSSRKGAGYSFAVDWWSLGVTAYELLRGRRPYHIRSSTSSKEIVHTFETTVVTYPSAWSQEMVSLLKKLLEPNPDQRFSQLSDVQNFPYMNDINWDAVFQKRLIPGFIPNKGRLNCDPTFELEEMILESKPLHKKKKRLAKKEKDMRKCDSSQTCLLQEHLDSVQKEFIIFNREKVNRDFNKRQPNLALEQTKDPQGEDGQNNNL

[39] = target: SYK (human) (UniProt P43405)
[40] = target: TNK2 (human) (UniProt Q07912)
[41] = target: VRK2 (human) (UniProt Q86Y07)
[42] = target: YSK4 (human) (UniProt Q56UN5)

CN(C)C/C=C/C(=O)Nc1cccc(C(=O)Nc2ccc(Nc3nccc(-c4c(-c5ccccc5)nn5ccccc45)n3)cc2)c1
kinase still bound, per cent of control ([1]; compound 1.0 µM): 0%
kinase still bound, per cent of control ([2]; compound 1.0 µM): 85%
kinase still bound, per cent of control ([3]; compound 1.0 µM): 58%
kinase still bound, per cent of control ([4]; compound 1.0 µM): 66%
kinase still bound, per cent of control ([5]; compound 1.0 µM): 100%
kinase still bound, per cent of control ([6]; compound 1.0 µM): 95%
kinase still bound, per cent of control ([7]; compound 1.0 µM): 81%
kinase still bound, per cent of control ([8]; compound 1.0 µM): 100%
kinase still bound, per cent of control ([9]; compound 1.0 µM): 89%
kinase still bound, per cent of control ([10]; compound 1.0 µM): 7.8%
kinase still bound, per cent of control ([11]; compound 1.0 µM): 38%
kinase still bound, per cent of control ([12]; compound 1.0 µM): 100%
kinase still bound, per cent of control ([13]; compound 1.0 µM): 93%
kinase still bound, per cent of control ([14]; compound 1.0 µM): 100%
kinase still bound, per cent of control ([15]; compound 1.0 µM): 49%
kinase still bound, per cent of control ([16]; compound 1.0 µM): 86%
kinase still bound, per cent of control ([17]; compound 1.0 µM): 100%
kinase still bound, per cent of control ([18]; compound 1.0 µM): 71%
kinase still bound, per cent of control ([19]; compound 1.0 µM): 84%
kinase still bound, per cent of control ([20]; compound 1.0 µM): 47%
kinase still bound, per cent of control ([21]; compound 1.0 µM): 80%
kinase still bound, per cent of control ([22]; compound 1.0 µM): 0%
kinase still bound, per cent of control ([23]; compound 1.0 µM): 100%
kinase still bound, per cent of control ([24]; compound 1.0 µM): 99%
kinase still bound, per cent of control ([25]; compound 1.0 µM): 59%
kinase still bound, per cent of control ([26]; compound 1.0 µM): 100%
kinase still bound, per cent of control ([27]; compound 1.0 µM): 69%
kinase still bound, per cent of control ([28]; compound 1.0 µM): 91%
kinase still bound, per cent of control ([29]; compound 1.0 µM): 93%
kinase still bound, per cent of control ([30]; compound 1.0 µM): 100%
kinase still bound, per cent of control ([31]; compound 1.0 µM): 100%
kinase still bound, per cent of control ([32]; compound 1.0 µM): 100%
kinase still bound, per cent of control ([33]; compound 1.0 µM): 46%
kinase still bound, per cent of control ([34]; compound 1.0 µM): 95%
kinase still bound, per cent of control ([35]; compound 1.0 µM): 82%
kinase still bound, per cent of control ([36]; compound 1.0 µM): 90%
kinase still bound, per cent of control ([37]; compound 1.0 µM): 100%
kinase still bound, per cent of control ([38]; compound 1.0 µM): 35%
kinase still bound, per cent of control ([39]; compound 1.0 µM): 82%
kinase still bound, per cent of control ([40]; compound 1.0 µM): 100%
kinase still bound, per cent of control ([41]; compound 1.0 µM): 85%
kinase still bound, per cent of control ([42]; compound 1.0 µM): 62%

Cc1ccc(NC(=O)c2ccc(NC(=O)/C=C/CN(C)C)cc2)cc1Nc1nccc(-c2cccnc2)n1
kinase still bound, per cent of control ([1]; compound 10.0 µM): 60%
kinase still bound, per cent of control ([2]; compound 10.0 µM): 86%
kinase still bound, per cent of control ([3]; compound 10.0 µM): 90%
kinase still bound, per cent of control ([4]; compound 10.0 µM): 81%
kinase still bound, per cent of control ([5]; compound 10.0 µM): 100%
kinase still bound, per cent of control ([6]; compound 10.0 µM): 85%
kinase still bound, per cent of control ([7]; compound 10.0 µM): 100%
kinase still bound, per cent of control ([8]; compound 10.0 µM): 93%
kinase still bound, per cent of control ([9]; compound 10.0 µM): 100%
kinase still bound, per cent of control ([10]; compound 10.0 µM): 54%
kinase still bound, per cent of control ([11]; compound 10.0 µM): 91%
kinase still bound, per cent of control ([12]; compound 10.0 µM): 100%
kinase still bound, per cent of control ([13]; compound 10.0 µM): 97%
kinase still bound, per cent of control ([14]; compound 10.0 µM): 44%
kinase still bound, per cent of control ([15]; compound 10.0 µM): 100%
kinase still bound, per cent of control ([16]; compound 10.0 µM): 29%
kinase still bound, per cent of control ([17]; compound 10.0 µM): 15%
kinase still bound, per cent of control ([18]; compound 10.0 µM): 100%
kinase still bound, per cent of control ([19]; compound 10.0 µM): 94%
kinase still bound, per cent of control ([20]; compound 10.0 µM): 92%
kinase still bound, per cent of control ([21]; compound 10.0 µM): 100%
Kd [22]: 290 nM
kinase still bound, per cent of control ([22]; compound 10.0 µM): 0%
kinase still bound, per cent of control ([23]; compound 10.0 µM): 74%
kinase still bound, per cent of control ([24]; compound 10.0 µM): 89%
kinase still bound, per cent of control ([25]; compound 10.0 µM): 100%
kinase still bound, per cent of control ([26]; compound 10.0 µM): 100%
kinase still bound, per cent of control ([27]; compound 10.0 µM): 40%
kinase still bound, per cent of control ([28]; compound 10.0 µM): 100%
kinase still bound, per cent of control ([29]; compound 10.0 µM): 72%
kinase still bound, per cent of control ([30]; compound 10.0 µM): 91%
kinase still bound, per cent of control ([31]; compound 10.0 µM): 86%
kinase still bound, per cent of control ([32]; compound 10.0 µM): 46%
kinase still bound, per cent of control ([33]; compound 10.0 µM): 97%
kinase still bound, per cent of control ([34]; compound 10.0 µM): 70%
kinase still bound, per cent of control ([35]; compound 10.0 µM): 85%
kinase still bound, per cent of control ([36]; compound 10.0 µM): 74%
kinase still bound, per cent of control ([37]; compound 10.0 µM): 100%
kinase still bound, per cent of control ([38]; compound 10.0 µM): 50%
kinase still bound, per cent of control ([39]; compound 10.0 µM): 62%
kinase still bound, per cent of control ([40]; compound 10.0 µM): 98%
kinase still bound, per cent of control ([41]; compound 10.0 µM): 85%
kinase still bound, per cent of control ([42]; compound 10.0 µM): 28%
